Reference: ChEMBL document CHEMBL5465560, “Selectivity Literature for EUbOPEN Chemogenomic Library” (2024)
Positions count from the first letter of the chain named.

Assays:
Conditions in all cases: at 10 µM
[1] = target: Receptor-type tyrosine-protein kinase FLT3 (Homo sapiens) (UniProt P36888); test: (§1) Selectivity interaction (KinomeScan (DiscoverX)) EUB0000655a FLT3
[2] = test system: T1, Receptor-type tyrosine-protein kinase FLT3 (Homo sapiens), P36888 [D835Y]; test: as §1
T1 sequence (whole entry): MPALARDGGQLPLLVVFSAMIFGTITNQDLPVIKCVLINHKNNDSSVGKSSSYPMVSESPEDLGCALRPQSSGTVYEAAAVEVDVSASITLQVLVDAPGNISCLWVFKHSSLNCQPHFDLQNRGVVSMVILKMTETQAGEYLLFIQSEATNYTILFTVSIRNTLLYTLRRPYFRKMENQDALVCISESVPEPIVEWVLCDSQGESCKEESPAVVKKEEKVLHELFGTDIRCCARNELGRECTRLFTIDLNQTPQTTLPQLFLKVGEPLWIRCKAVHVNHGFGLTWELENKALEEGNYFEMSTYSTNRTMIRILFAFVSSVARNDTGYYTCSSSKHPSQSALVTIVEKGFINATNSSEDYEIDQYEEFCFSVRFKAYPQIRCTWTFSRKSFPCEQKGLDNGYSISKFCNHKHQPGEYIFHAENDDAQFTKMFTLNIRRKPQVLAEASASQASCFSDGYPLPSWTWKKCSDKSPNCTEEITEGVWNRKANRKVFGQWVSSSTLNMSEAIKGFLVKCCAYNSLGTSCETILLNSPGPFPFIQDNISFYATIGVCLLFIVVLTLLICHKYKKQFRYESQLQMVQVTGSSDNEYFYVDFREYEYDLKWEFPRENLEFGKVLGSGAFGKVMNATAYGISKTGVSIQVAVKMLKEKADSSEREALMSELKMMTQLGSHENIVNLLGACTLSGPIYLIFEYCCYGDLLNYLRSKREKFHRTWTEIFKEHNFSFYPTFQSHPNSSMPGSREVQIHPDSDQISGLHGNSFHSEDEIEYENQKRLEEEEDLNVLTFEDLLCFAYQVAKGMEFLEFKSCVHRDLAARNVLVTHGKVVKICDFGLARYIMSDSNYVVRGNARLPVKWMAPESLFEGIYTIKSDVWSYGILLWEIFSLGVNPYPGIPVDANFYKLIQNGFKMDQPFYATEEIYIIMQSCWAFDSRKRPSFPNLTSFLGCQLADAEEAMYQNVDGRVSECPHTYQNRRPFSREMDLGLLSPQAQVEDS

[3] = test system: T2, Receptor-type tyrosine-protein kinase FLT3 (Homo sapiens), P36888 [K663Q]; test: as §1
T2 sequence (whole entry): T1 sequence (whole entry) with K663Q, Y835D

[4] = test system: T3, Receptor-type tyrosine-protein kinase FLT3 (Homo sapiens), P36888 [N841I]; test: as §1
T3 sequence (whole entry): T1 sequence (whole entry) with Y835D, N841I

[5] = test system: Receptor-type tyrosine-protein kinase FLT3 (Homo sapiens), P36888 [UNDEFINED MUTATION]; test: as §1

CN(C)CCOc1ccc(-c2nc(-c3ccncc3)c(-c3ccc4c(c3)CC/C4=N\O)[nH]2)cc1
% of control [1]: 62%
% of control [2]: 64%
% of control [3]: 90%
% of control [4]: 81%
% of control [5]: 78%
